Results reported in patent publication US9216183B2, “Topical treatment for chemotherapy induced eyelash loss or hypotrichosis using prostamide F2 alpha agonists” (ALLERGAN, INC., priority 2002, dated 2015).
“And” between values parts separate entries of the source, which are not always exact repeats. Equal entries are not always repeated.

Test system: eyelashes of subjects with idiopathic hypotrichosis
Test: GEA / ESQ Domain 2 responder analysis, 1-year clinical study, idiopathic hypotrichosis
Type: in vivo, human
Source text: A one-year, multicenter, randomized, double-masked, vehicle-controlled study. Adult post-chemotherapy and idiopathic eyelash hypotrichosis subjects were enrolled based on their score of 1 or 2 on a four point ordinal Global Eyelash Assessment (GEA) scale, and in addition having a low score on a PRO measure associated with 'psychological impact' of the condition, a domain-2 of the Eyelash Satisfaction Questionnaire (ESQ). The study involved two treatment periods of six months each. In the first treatment period, subjects for both populations were randomized 3:1 for QD bimatoprost: vehicle treatment. In the second 6-month treatment period, all subjects were moved to bimatoprost treatment, except for a group of bimatoprost treated idiopathic hypotrichosis subjects (n=55) who were switched to vehicle to investigate the effect of drug discontinuation. The study included 9 visits over the 12-month treatment period. The primary end point was the proportion of responders within each treatment group based on a composite measure of GEA and ESQ Domain-2 (investigator assessed eyelash prominence and subject's assessment of 'psychological impact' related to eyelashes) at month-4. This multicenter, double-masked, randomized, parallel-group study included two 6-month treatment periods. Subjects with idiopathic hypotrichosis were randomized to 3 treatment groups: 1) treatment period 1 (TP1) and TP2: bimatoprost; 2) TP1: bimatoprost; TP2: vehicle; and 3) TP1: vehicle; TP2: bimatoprost. Subjects with chemotherapy-induced hypotrichosis were randomized to 2 treatment groups: 1) TP1: bimatoprost or vehicle; and 2) TP2: bimatoprost. The primary endpoint was a composite of at least a 1-grade improvement in investigator-assessed Global Eyelash Assessment (GEA), and at least a 3-point improvement in subject-reported Eyelash Satisfaction Questionnaire (ESQ) Domain 2 (self-perceived confidence, attractiveness, and professionalism) at month 4. Secondary measures included digitally assessed eyelash characteristics (i.e., eyelash length, fullness, and darkness). Idiopathic hypotrichosis subjects were randomized to 3 treatment arms in a 2:1:1 ratio: bimatoprost during both treatment periods; vehicle in TP1 and bimatoprost in TP2; and bimatoprost in TP1 and vehicle in TP2. Chemotherapy-induced hypotrichosis subjects were randomized in a 3:1 ratio to receive bimatoprost during both treatment periods or vehicle in TP1 followed by bimatoprost in TP2. Male or female subjects at least 18 years of age who met these criteria were eligible for inclusion in the study: a score of 1 or 2 on the clinician-graded global eyelash assessment (“GEA”); a score of 1 (very much disagree) or 2 (disagree) on each of 3 items (16 [confidence], 19 [attractiveness], and 18 [professionalism]) on the subject-assessed eyelash satisfaction questionnaire (“esq”); best-corrected visual acuity (“bcva”) score equivalent to a […] acuity of 20/100 or better in each eye; and intraocular pressure (“iop”) 20 mm hg or less in each eye. Subjects in the chemotherapy-induced hypotrichosis population also met the following inclusion criteria: inadequate eyelashes after completing chemotherapy; treatment for solid tumor type stage 1, 2, or 3a cancer; last chemotherapy treatment at least 4 to less than 16 weeks prior to baseline; and considered free of cancer. Key exclusion criteria included subjects with any eye disease or abnormality or a history of eye surgery. Subjects placed 1 drop of study treatment (i.e., bimatoprost 0.03% or vehicle) onto a sterile single-use-per eye applicator and applied it to the upper eyelid margin of 1 eye; a second applicator was used for the contralateral eye. Treatment was applied once daily in the evening throughout the study. […]

[1] = Bim/Veh group (n = 60), Month 1 (on bimatoprost)
[2] = Bim/Veh group (n = 60), Month 2 (on bimatoprost)
[3] = Bim/Veh group (n = 60), Month 4 (on bimatoprost)
[4] = Bim/Veh group (n = 60), Month 6 (on bimatoprost)
[5] = Bim/Veh group (n = 60), Month 7 (vehicle since month 6)
[6] = Bim/Veh group (n = 60), Month 8 (vehicle since month 6)
[7] = Bim/Veh group (n = 60), Month 10 (vehicle since month 6)
[8] = Bim/Veh group (n = 60), Month 12 (vehicle since month 6)
[9] = Month 4, all bimatoprost TP1 (n = 179)
[10] = Month 6, all bimatoprost TP1 (n = 179)

CCNC(=O)CCC/C=C\C[C@@H]1[C@@H](/C=C/[C@@H](O)CCc2ccccc2)[C@H](O)C[C@@H]1O [Bim 0.03%, bimatoprost]
Primary composite endpoint responders (≧1-grade GEA and ≧3-point ESQ Domain 2 improvement) [1]: 0.0% | ≧1-Grade Improvement From Baseline GEA Score [1]: 10.0% | ≧2-Grade Improvement From Baseline GEA Score [1]: 0.0% | ≧3-Point Improvement From Baseline ESQ Domain 2 Score [1]: 13.3% | Primary composite endpoint responders (≧1-grade GEA and ≧3-point ESQ Domain 2 improvement) [2]: 13.3% | ≧1-Grade Improvement From Baseline GEA Score [2]: 40.0% | ≧2-Grade Improvement From Baseline GEA Score [2]: 3.3% | ≧3-Point Improvement From Baseline ESQ Domain 2 Score [2]: 25.0% | Primary composite endpoint responders (≧1-grade GEA and ≧3-point ESQ Domain 2 improvement) [3]: 41.7% | ≧1-Grade Improvement From Baseline GEA Score [3]: 71.7% | ≧2-Grade Improvement From Baseline GEA Score [3]: 25.0% | ≧3-Point Improvement From Baseline ESQ Domain 2 Score [3]: 48.3% | Primary composite endpoint responders (≧1-grade GEA and ≧3-point ESQ Domain 2 improvement) [4]: 48.3% | ≧1-Grade Improvement From Baseline GEA Score [4]: 76.7% | ≧2-Grade Improvement From Baseline GEA Score [4]: 30.0% | ≧3-Point Improvement From Baseline ESQ Domain 2 Score [4]: 56.7% | Primary composite endpoint responders (≧1-grade GEA and ≧3-point ESQ Domain 2 improvement) [5]: 51.7% | ≧1-Grade Improvement From Baseline GEA Score [5]: 78.3% | ≧2-Grade Improvement From Baseline GEA Score [5]: 30.0% | ≧3-Point Improvement From Baseline ESQ Domain 2 Score [5]: 56.7% | Primary composite endpoint responders (≧1-grade GEA and ≧3-point ESQ Domain 2 improvement) [6]: 50.0% | ≧1-Grade Improvement From Baseline GEA Score [6]: 78.3% | ≧2-Grade Improvement From Baseline GEA Score [6]: 28.3% | ≧3-Point Improvement From Baseline ESQ Domain 2 Score [6]: 55.0% | Primary composite endpoint responders (≧1-grade GEA and ≧3-point ESQ Domain 2 improvement) [7]: 20.0% | ≧1-Grade Improvement From Baseline GEA Score [7]: 46.7% | ≧2-Grade Improvement From Baseline GEA Score [7]: 8.3% | ≧3-Point Improvement From Baseline ESQ Domain 2 Score [7]: 43.3% | Primary composite endpoint responders (≧1-grade GEA and ≧3-point ESQ Domain 2 improvement) [8]: 11.7% | ≧1-Grade Improvement From Baseline GEA Score [8]: 35.0% | ≧2-Grade Improvement From Baseline GEA Score [8]: 5.0% | ≧3-Point Improvement From Baseline ESQ Domain 2 Score [8]: 38.3% | Primary composite endpoint responders (≧1-grade GEA and ≧3-point ESQ Domain 2 improvement) [9]: 40.2% | Responders with ≧1-grade increase in GEA score [9]: 74.3% | Responders with ≧2-grade increase in GEA score [9]: 25.7% | Responders with ≧3-point increase in ESQ Domain 2 [9]: 47.5% | Responders with ≧1-grade increase in GEA score (Month 4, all bimatoprost TP1 (n = 179), listed as Bimatoprost): 74.3% | Responders with ≧1-grade increase in GEA score (Month 4, all bimatoprost TP1 (n = 179), listed as bimatoprost): 74.3% and > 70% | Primary composite endpoint responders (≧1-grade GEA and ≧3-point ESQ Domain 2 improvement) [10]: 47.5% | Responders with ≧1-grade increase in GEA score [10]: 77.7% | Responders with ≧2-grade increase in GEA score [10]: 30.7% | Responders with ≧3-point increase in ESQ Domain 2 [10]: 55.9% | Time efficacy was maintained after drug discontinuation (bimatoprost 6 months then vehicle): about 2 months
